Measurements reported in patent publication US11331333B2, “Treatment of aberrant fibroblast proliferation” (Georg August Universitaet Goettingen Stiftung Oeffentlichen …, priority 2019, dated 2022).

Assays:
Format in all cases: cell-based, mouse
[1] = tested on: primary murine fibroblast cultures overexpressing EYA1A; test: γH2A.X^pY142 labelling after NCS exposure in fibroblasts overexpressing EYA1A; details: 60 minutes after NCS exposure
Excerpt: (§1) FIGS. 12A-12B show the effect of the established EYA1 γH2A.X^pY142 tyrosine phosphatase inhibitors Na3VO4 (blocking tyrosine phosphatase activity) and caffeine (blocking ATM-dependent recruitment of EYA1 towards γH2A.X) on γH2A.X^pY142 dephosphorylation and fibroblast accumulation. FIG. 12A depicts results of an analysis of photomicrographs of primary murine fibroblast cultures transfected with control plasmids (vector) and plasmids overexpressing EYA1A (EYA1A^oe) or EYA1C (EYA1C^oe). Cells were exposed to either Na3VO4 or caffeine and labelled for 7H2A.X^pY142 60 minutes after NCS exposure (n=100 nuclei each, data are presented as means±s.d., **p<0.01, # no significance, values of p were calculated using Student's t test comparing indicated groups). FIG. 12B depicts results of an analysis of proliferative activity of primary murine fibroblasts transfected with indicated constructs, seeded at a density of 60,000 per well. Proliferative activity was determined at indicated time points after exposure to Na3VO4 or caffeine (n=3 independent replicates, data are presented as means±s.d., ***p<0.001, ****p<0.0001, values of p were calculated using one-way ANOVA with Bonferroni post-hoc analysis comparing control and Na3VO4^− or caffeine-treated cultures overexpressing EYA1A). […]

[2] = tested on: primary murine fibroblast cultures overexpressing EYA1C; test: γH2A.X^pY142 labelling after NCS exposure in fibroblasts overexpressing EYA1C; details: 60 minutes after NCS exposure
Excerpt: as §1

[3] = tested on: primary murine fibroblasts overexpressing EYA1A; test: Proliferative activity of primary murine fibroblasts overexpressing EYA1A; details: seeded at 60,000 per well
Excerpt: FIGS. 12A-12B show the effect of the established EYA1 γH2A.X^[…] tyrosine phosphatase inhibitors Na3VO4 (blocking tyrosine phosphatase activity) and caffeine (blocking ATM-dependent recruitment of EYA1 towards γH2A.X) on γH2A.X^[…] dephosphorylation and fibroblast accumulation. FIG. 12A depicts results of an analysis of photomicrographs of primary murine fibroblast cultures transfected with control plasmids (vector) and plasmids overexpressing […]) or EYA1C (EYA1C^oe). […] FIG. 12B depicts results of an analysis of proliferative activity of primary murine fibroblasts transfected with indicated constructs, seeded at a density of 60,000 per well.

SMILES	EYA1A-induced premature γH2A.X^pY142 dephosphorylation [1]	γH2A.X^pY142 in EYA1C overexpressing cells [2]	EYA1A-induced fibroblast accumulation [3]
Cn1c(=O)c2c(ncn2C)n(C)c1=O [caffeine]	reversed	neither Na3VO4 nor caffeine affected	reversed
[Na+].[Na+].[Na+].[O]=[V]([O-])([O-])[O-] [Na3VO4, sodium orthovanadate]	reversed	neither Na3VO4 nor caffeine affected	reversed
